# Laboratory results: patent publication US20240148821A1, “PHARMACEUTICAL USE OF CYCLIC PEPTIDE COMPOUND” (CHUGAI SEIYAKU KABUSHIKI KAISHA, priority 2021, published 2024)
# Numbered stars: 1 amine (or outer) side, 2 acyl side, 3 side chain; on linkers, the order of the positions; unused ones are H or OH. Bridge positions count the residues as written; N and C are the ends. Square brackets hold non-standard residues; d marks the D form. Peptide text beside a SMILES is read from it. * marks the point of attachment. hPhe(3,5-F2-4-CF3) = N[C@@H](CCc1cc(F)c(C(F)(F)F)c(F)c1)C(=O)O; hPhe(3-Cl-4-CF3) = N[C@@H](CCc1ccc(C(F)(F)F)c(Cl)c1)C(=O)O; hPhe(3-F,4-CF3) = N[C@@H](CCc1ccc(C(F)(F)F)c(F)c1)C(=O)O; X37 = CC(C)(C)NC(=O)COC[C@H](CC(=O)[*:1])N[*:2]; Thiomorpholino(1,1-dioxo) = O=S1(=O)CCN(*)CC1; NEtPhe(4-Me) = CCN[C@@H](Cc1ccc(C)cc1)C(=O)O; NMePhe(4-Cl) = CN[C@@H](Cc1ccc(Cl)cc1)C(=O)O; NMePhe(4-Me) = CN[C@@H](Cc1ccc(C)cc1)C(=O)O; NMePhe(3-F) = CN[C@@H](Cc1cccc(F)c1)C(=O)O; Phe(4-Cl) = N[C@@H](Cc1ccc(Cl)cc1)C(=O)O; NMeGly(cPent) = CN[C@H](C(=O)O)C1CCCC1; Phe(3-I) = N[C@@H](Cc1cccc(I)c1)C(=O)O; Pro(4,4-F2) = O=C(O)[C@@H]1CC(F)(F)CN1; X26 = CC(C)=CC[C@H](N[*:1])C(=O)[*:2]; NMe3Pal = CN[C@@H](Cc1cccnc1)C(=O)O; NMeCha = CN[C@@H](CC1CCCCC1)C(=O)O; NMeChg = CN[C@H](C(=O)O)C1CCCCC1; NMeI = CC[C@H](C)[C@H](NC)C(=O)O; NMeβAla = CN(CCC(=O)[*:2])[*:1]; NMeD = CN[C@@H](CC(=O)O)C(=O)O; NMeL = CN[C@@H](CC(C)C)C(=O)O; NMeNva = CCC[C@H](NC)C(=O)O; NMeV = CN[C@H](C(=O)O)C(C)C; d(β3hA) = C[C@@H](N)CC(=O)O; hSer = N[C@@H](CCO)C(=O)O; Morpholide = C1CN(*)CCO1; NMeA = CN[C@@H](C)C(=O)O; NMeAib = CNC(C)(C)C(=O)O; Nle = CCCC[C@H](N)C(=O)O; Piperidide = C1CCN(*)CC1; Pyrrolidide = C1CCN(*)C1; Ac5c = NC1(C(=O)O)CCCC1; Aze = O=C(O)[C@@H]1CCN1; NPrGly = CCCNCC(=O)O; Sar = CNCC(=O)O
# System: Human pancreatic cancer cell line AsPC-1 (G12D mutation Kras)
# Assay: AsPC-1 cell growth inhibition (AsPC-1 CGI)
# Type: cell-based
# Settings: read-out: AsPC-1 cell growth inhibition, 50% growth inhibitory concentration (IC50 value); 96 hours, CellTiter-Glo, values classified in ranges
# Method: Test compounds were serially dilated with dimethyl sulfoxide, and 200 nL was then dispensed to a U-bottom 96-well plate using Labcyte Echo. […] The cell suspension was dispensed to a. plate containing a test compound at 100 μL per well and incubated at 37° C. in a 5% carbon dioxide gas incubator. 96 hours later, 80 μL of CellTiter-Glo (Promega) was added to each well and fluorescence was measured.
row,Structure (SMILES),IC50 [nM]
1,CC[C@H](C)[C@@H]1NC(=O)[C@H](CC(C)C)N(C)C(=O)C[C@@H](COCC(=O)NC(C)(C)C)NC(=O)[C@H](C(C)C)N(C)C(=O)C2(CCCC2)NC(=O)[C@@H]2CCCN2C(=O)[C@H](CCc2ccc(C(F)(F)F)c(Cl)c2)NC(=O)CN(C)C(=O)[C@H](CC2CCCCC2)N(C)C(=O)CN(C)C(=O)CN(C)C1=O [Compound 955] ([NMeL]I[Sar][Sar][NMeCha][Sar][hPhe(3-Cl-4-CF3)]P[Ac5c][NMeV]; linker N-C via X37),> 500
2,CC[C@H](C)[C@@H]1NC(=O)[C@H](CC(C)C)N(C)C(=O)C[C@@H](C(=O)N2CCCCC2)N(C)C(=O)[C@H](CC(C)C)NC(=O)C(C)(C)N(C)C(=O)[C@H](Cc2ccc(Cl)cc2)NC(=O)[C@H](Cc2cccc(I)c2)NC(=O)CN(C)C(=O)[C@H](CC2CCCCC2)N(C)C(=O)CN(C)C(=O)CN(C)C1=O [Compound 330] ([NMeL]I[Sar][Sar][NMeCha][Sar][Phe(3-I)][Phe(4-Cl)][NMeAib]L[NMeD]-Piperidide; lactam N-11),> 500
3,CC[C@H](C)[C@@H]1NC(=O)[C@H](CC(C)C)N(C)C(=O)C[C@@H](C)NC(=O)[C@H](C(C)C)N(C)C(=O)C2(CCCC2)NC(=O)[C@@H]2CCCN2C(=O)[C@H](CCc2ccc(C(F)(F)F)c(Cl)c2)NC(=O)CN(C)C(=O)[C@H](Cc2cccc(F)c2)N(C)C(=O)CN(C)C(=O)CN(C)C1=O [Compound 1556] (cyclo([Ac5c][NMeV][d(β3hA)][NMeL]I[Sar][Sar][NMePhe(3-F)][Sar][hPhe(3-Cl-4-CF3)]P)),> 500
4,CC(C)=CC[C@@H]1NC(=O)[C@H](CC(C)C)N(C)C(=O)C[C@@H](C(=O)N2CCCCC2)N(C)C(=O)[C@H](C2CCCCC2)N(C)C(=O)C2(CCCC2)NC(=O)[C@@H]2CCCN2C(=O)[C@H](CCc2ccc(C(F)(F)F)c(Cl)c2)NC(=O)CN(C)C(=O)[C@H](CC2CCCCC2)N(C)C(=O)CN(C)C(=O)CN(C)C1=O [Compound 1134] ([NMeL][X26][Sar][Sar][NMeCha][Sar][hPhe(3-Cl-4-CF3)]P[Ac5c][NMeChg][NMeD]-Piperidide; lactam N-11),> 500
5,CC[C@H](C)[C@@H]1NC(=O)[C@H](CC(C)C)N(C)C(=O)C[C@@H](C(=O)N(C)C)N(C)C(=O)[C@H]([C@@H](C)CC)N(C)C(=O)[C@H](C(C)C)NC(=O)[C@H](C)N(C)C(=O)[C@H](CCc2ccc(C(F)(F)F)c(Cl)c2)NC(=O)CN(C)C(=O)[C@H](Cc2ccc(C)cc2)N(C)C(=O)[C@@H]2CCN2C(=O)[C@H](C)N(C)C1=O [Compound 4] ([NMeL]I[NMeA][Aze][NMePhe(4-Me)][Sar][hPhe(3-Cl-4-CF3)][NMeA]V[NMeI][NMeD]-NMe2; lactam N-11),> 500
6,"CC[C@H](C)[C@@H]1NC(=O)[C@H](CC(C)C)N(C)C(=O)C[C@@H](C(=O)N2CCOCC2)N(C)C(=O)[C@H](C2CCCC2)N(C)C(=O)C2(CCCC2)NC(=O)[C@@H]2CCCN2C(=O)[C@H](CCc2cc(F)c(C(F)(F)F)c(F)c2)NC(=O)CN(C)C(=O)[C@H](Cc2ccc(C)cc2)N(CC)C(=O)[C@@H]2CCN2C(=O)[C@H](C)N(C)C1=O [Compound 1368] ([NMeL]I[NMeA][Aze][NEtPhe(4-Me)][Sar][hPhe(3,5-F2-4-CF3)]P[Ac5c][NMeGly(cPent)][NMeD]-Morpholide; lactam N-11)",≤ 20
7,CC[C@H](C)[C@@H]1NC(=O)[C@H](C)N(C)C(=O)C[C@@H](C(=O)N2CCCC2)N(C)C(=O)[C@H](C2CCCCC2)N(C)C(=O)C2(CCCC2)NC(=O)[C@H](Cc2cccnc2)N(C)C(=O)[C@H](CCc2ccc(C(F)(F)F)c(Cl)c2)NC(=O)CN(C)C(=O)[C@H](CC2CCCCC2)N(C)C(=O)CN(C)C(=O)CN(C)C1=O [Compound 1834] ([NMeA]I[Sar][Sar][NMeCha][Sar][hPhe(3-Cl-4-CF3)][NMe3Pal][Ac5c][NMeChg][NMeD]-Pyrrolidide; lactam N-11),> 500
8,CCCN1CC(=O)N(C)CC(=O)N(C)[C@@H](CC2CCCCC2)C(=O)N(C)CC(=O)N[C@@H](CCc2ccc(C(F)(F)F)c(Cl)c2)C(=O)N2CCC[C@H]2C(=O)NC2(CCCC2)C(=O)N(C)[C@@H](C(C)C)C(=O)N[C@H](C)CC(=O)N(C)[C@@H](CC(C)C)C(=O)N[C@@H]([C@@H](C)CC)C1=O [Compound 116] (cyclo([Ac5c][NMeV][d(β3hA)][NMeL]I[NPrGly][Sar][NMeCha][Sar][hPhe(3-Cl-4-CF3)]P)),> 500
9,CCCC[C@@H]1NC(=O)[C@H](Cc2ccccc2)NC(=O)CN(C)C(=O)[C@H](Cc2ccc(Cl)cc2)N(C)C(=O)CN(C)C(=O)CN(C)C(=O)[C@H]([C@@H](C)CC)NC(=O)[C@H](CC(C)C)N(C)C(=O)C[C@@H](C(=O)N2CCCCC2)N(C)C(=O)[C@H](CC(C)C)NC(=O)C(C)(C)N(C)C1=O [Compound 1043] ([NMeL]I[Sar][Sar][NMePhe(4-Cl)][Sar]F[Nle][NMeAib]L[NMeD]-Piperidide; lactam N-11),> 500
10,"CC[C@H](C)[C@@H]1NC(=O)[C@H](CC(C)C)N(C)C(=O)C[C@@H](C(=O)N2CCOCC2)N(C)C(=O)[C@H](C2CCCCC2)N(C)C(=O)C2(CCCC2)NC(=O)[C@@H]2CC(F)(F)CN2C(=O)[C@H](CCc2cc(F)c(C(F)(F)F)c(F)c2)NC(=O)CN(C)C(=O)[C@H](CC2CCCCC2)N(C)C(=O)CN(C)C(=O)CN(C)C1=O [Compound 1337] ([NMeL]I[Sar][Sar][NMeCha][Sar][hPhe(3,5-F2-4-CF3)][Pro(4,4-F2)][Ac5c][NMeChg][NMeD]-Morpholide; lactam N-11)",≤ 20
11,"CC[C@H](C)[C@@H]1NC(=O)[C@H](CC(C)C)N(C)C(=O)C[C@@H](C(=O)N2CCS(=O)(=O)CC2)NC(=O)[C@H]([C@@H](C)CC)N(C)C(=O)C2(CCCC2)NC(=O)[C@@H]2CCCN2C(=O)[C@H](CCc2ccc(C(F)(F)F)c(Cl)c2)NC(=O)CN(C)C(=O)[C@H](CC2CCCCC2)N(C)C(=O)CN(C)C(=O)CN(C)C1=O [Compound 1279] ([NMeL]I[Sar][Sar][NMeCha][Sar][hPhe(3-Cl-4-CF3)]P[Ac5c][NMeI]D-{Thiomorpholino(1,1-dioxo)}; lactam N-11)",> 500
12,COCC[C@@H]1NC(=O)[C@H](CC(C)C)N(C)C(=O)C[C@@H](C(=O)N2CCCCC2)N(C)C(=O)[C@H](C2CCCCC2)N(C)C(=O)C2(CCCC2)NC(=O)[C@@H]2CCCN2C(=O)[C@H](CCc2ccc(C(F)(F)F)c(Cl)c2)NC(=O)CN(C)C(=O)[C@H](CC2CCCCC2)N(C)C(=O)CN(C)C(=O)CN(C)C1=O [Compound 941] ([NMeL][hSer](Me)[Sar][Sar][NMeCha][Sar][hPhe(3-Cl-4-CF3)]P[Ac5c][NMeChg][NMeD]-Piperidide; lactam N-11),> 500
13,"CC[C@H](C)[C@@H]1NC(=O)[C@H](CC(C)C)N(C)C(=O)CCN(C)C(=O)[C@H](C(C)C)N(C)C(=O)C2(CCCC2)NC(=O)[C@@H]2CCCN2C(=O)[C@H](CCc2ccc(C(F)(F)F)c(F)c2)NC(=O)CN(C)C(=O)[C@H](CC2CCCCC2)N(C)C(=O)CN(C)C(=O)CN(C)C1=O [Compound 879] (cyclo([Ac5c][NMeV][NMeβAla][NMeL]I[Sar][Sar][NMeCha][Sar][hPhe(3-F,4-CF3)]P))",> 500
14,CCC[C@H]1C(=O)N[C@@H]([C@@H](C)CC)C(=O)N(C)CC(=O)N(C)CC(=O)N(C)[C@@H](CC2CCCCC2)C(=O)N(C)CC(=O)N[C@@H](CCc2ccc(C(F)(F)F)c(Cl)c2)C(=O)N2CCC[C@H]2C(=O)NC2(CCCC2)C(=O)N(C)[C@@H](C2CCCCC2)C(=O)N(C)[C@H](C(=O)N2CCCC2)CC(=O)N1C [Compound 2001] ([NMeNva]I[Sar][Sar][NMeCha][Sar][hPhe(3-Cl-4-CF3)]P[Ac5c][NMeChg][NMeD]-Pyrrolidide; lactam N-11),≤ 20
